Measurements as given in patent US9586928B2 (The Scripps Research Institute, priority 2011, dated 2017).
Blank lines part the entries; values can stand above or below the compound they belong to.

Key:
GST-RORγ = biological target: T1, GST-RORγ (Homo sapiens, UniProt P51449); assay: RORγ scintillation proximity (SPA) radioligand binding assay, displacement of [3H]-T0901317; conditions: read-out: RORγ SPA % bound = % radiolabel bound; for remaining activity at 10 µM: 10 μM compound; for remaining activity at 1 µM: 1 μM compound (Table 2D)
T1 construct: 1 μg of GST-RORγ-LBD, 5 nM of [3H]T1317 as radioligand
T1 sequence (P51449 269-508 limits assumed): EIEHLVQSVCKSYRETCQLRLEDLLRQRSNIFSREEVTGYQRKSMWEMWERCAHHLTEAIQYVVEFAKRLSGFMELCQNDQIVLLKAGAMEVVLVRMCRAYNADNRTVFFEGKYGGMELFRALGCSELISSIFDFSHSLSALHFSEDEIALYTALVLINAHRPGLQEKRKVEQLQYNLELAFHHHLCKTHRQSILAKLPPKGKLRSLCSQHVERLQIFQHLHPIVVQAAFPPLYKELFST

VP16 = assay: Gal4 DBD-VP16 / UAS luciferase control assay; format: cell-based; conditions: 10 μM
RORγ = biological target: T2, RORγ (Homo sapiens, UniProt P51449); assay: Gal4-RORγ LBD / UAS luciferase cotransfection assay; format: cell-based; conditions: 10 μM
T2 construct: expressed in transfected cells; host or cells: HEK293T
T2 sequence (P51449 269-508 limits assumed): T1 sequence (P51449 269-508 limits assumed)

remaining activity at 1 µM (GST-RORγ): 76%
Compound: O=C(Nc1ccc(-c2ccc(C(O)(C(F)(F)F)C(F)(F)F)cc2)cc1)N1CCN(Cc2ccncc2)CC1 [Compound 136, N-(4′-(1,1,1,3,3,3-hexafluoro-2-hydroxypropan-2-yl)-[1,1′-biphenyl]-4-yl)-4-(pyridin-4-ylmethyl)piperazine-1-carboxamide]

remaining activity at 1 µM (GST-RORγ): 68%
Compound: O=S(=O)(c1ccc(-c2ccc(C(O)(C(F)(F)F)C(F)(F)F)cc2)cc1)N1CCN(Cc2ccncc2)CC1 [Compound 138, 1,1,1,3,3,3-hexafluoro-2-(4′-((4-(pyridin-4-ylmethyl)piperazin-1-yl)sulfonyl)-[1,1′-biphenyl]-4-yl)propan-2-ol]

remaining activity at 1 µM (GST-RORγ): 59%
Compound: OC(c1ccc(-c2ccc3c(c2)CCC3N2CCN(Cc3ccncc3)CC2)cc1)(C(F)(F)F)C(F)(F)F (centres unmarked) [Compound 139, 1,1,1,3,3,3-hexafluoro-2-(4-(1-(4-(pyridin-4-ylmethyl)piperazin-1-yl)-2,3-dihydro-H I-inden-5-yl)phenyl)propan-2-ol]

remaining activity at 1 µM (GST-RORγ): 74%
Compound: CC(c1ccc(-c2ccc(C(O)(C(F)(F)F)C(F)(F)F)cc2)cc1)N1CCN(Cc2ccncc2)CC1 (centres unmarked) [Compound 140, 1,1,1,3,3,3-hexafluoro-2-(4′-(1-(4-(pyridin-4-ylmethyl)piperazin-1-yl)ethyl)-[1,1′-biphenyl]-4-yl)propan-2-ol]

remaining activity at 1 µM (GST-RORγ): 74%
Compound: CCC(c1ccc(-c2ccc(C(O)(C(F)(F)F)C(F)(F)F)cc2)cc1)N1CCN(Cc2ccncc2)CC1 (centres unmarked) [Example 141, 1,1,1,3,3,3-hexafluoro-2-(4′-(1-(4-(pyridin-4-ylmethyl)piperazin-1-yl)propyl)-[1,1′-biphenyl]-4-yl)propan-2-ol]

remaining activity at 1 µM (GST-RORγ): 73%
Compound: CCCCC(c1ccc(-c2ccc(C(O)(C(F)(F)F)C(F)(F)F)cc2)cc1)N1CCN(Cc2ccncc2)CC1 (centres unmarked) [Example 142, 1,1,1,3,3,3-hexafluoro-2-(4′-(1-(4-(pyridin-4-ylmethyl)piperazin-1-yl)pentyl)-[1,1′-biphenyl]-4-yl)propan-2-ol]

remaining activity at 1 µM (GST-RORγ): 74%
Compound: CC(Cc1ccc(-c2ccc(C(O)(C(F)(F)F)C(F)(F)F)cc2)cc1)N1CCN(Cc2ccncc2)CC1 (centres unmarked) [Example 143, 1,1,1,3,3,3-hexafluoro-2-(4′-(2-(4-(pyridin-4-ylmethyl)piperazin-1-yl)propyl)-[1,1′-biphenyl]-4-yl)propan-2-ol]

remaining activity at 1 µM (GST-RORγ): 61%
Compound: OC(c1ccc(-c2ccc(CCN3CCN(Cc4ccncc4)CC3)cc2)cc1)(C(F)(F)F)C(F)(F)F [Example 144, 1,1,1,3,3,3-hexafluoro-2-(4′-(2-(4-(pyridin-4-ylmethyl)piperazin-1-yl)ethyl)-[1,1′-biphenyl]-4-yl)propan-2-ol]

remaining activity at 1 µM (GST-RORγ): 90%
Compound: OC(c1ccc(-c2ccc(CN3CCN(Cc4ccc5cc[nH]c5c4)CC3)cc2)cc1)(C(F)(F)F)C(F)(F)F [Example 154, 2-(4′-((4-((1H-indol-6-yl)methyl)piperazin-1-yl)methyl)-[1,1′-biphenyl]-4-yl)-1,1,1,3,3,3-hexafluoropropan-2-ol]

remaining activity at 1 µM (GST-RORγ): 100%
Compound: OC(c1ccc(-c2ccc(CN3CCN(Cc4ccc5nc[nH]c5c4)CC3)cc2)cc1)(C(F)(F)F)C(F)(F)F [Example 155, 2-(4′-((4-((1H-benzo[d]imidazol-6-yl)methyl)piperazin-1-yl)methyl)-[1,1′-biphenyl]-4-yl)-1,1,1,3,3,3-hexafluoropropan-2-ol]

remaining activity at 1 µM (GST-RORγ): 75%
Compound: CC(C)Oc1cc(C(O)(C(F)(F)F)C(F)(F)F)ccc1-c1ccc(CN2CCN(Cc3ccncc3)CC2)cc1 [Example 156, 1,1,1,3,3,3-hexafluoro-2-(2-isopropoxy-4′-((4-(pyridin-4-ylmethyl)piperazin-1-yl)methyl)-[1,1′-biphenyl]-4-yl)propan-2-ol]

remaining activity at 1 µM (GST-RORγ): 20%
Compound: CC(C)CCN1CCN(Cc2ccc(-c3ccc(C(O)(C(F)(F)F)C(F)(F)F)cc3)cc2)CC1 [Example 157, 1,1,1,3,3,3-hexafluoro-2-(4′-((4-isopentylpiperazin-1-yl)methyl)-[1,1′-biphenyl]-4-yl)propan-2-ol]

Continued, compound first:

Compound: OC(c1ccc(-c2ccc(CN3CCN(Cc4ccncc4)CC3)cc2)cc1F)(C(F)(F)F)C(F)(F)F [Compound 105, 1,1,1,3,3,3-Hexafluoro-2-(3-fluoro-4′-((4-(pyridin-4-ylmethyl)piperazin-1-yl)methyl)-[1,1′-biphenyl]-4-yl)propan-2-ol]
remaining activity at 10 µM (GST-RORγ): 80%

Compound: COc1cc(-c2ccc(CN3CCN(Cc4ccncc4)CC3)cc2)ccc1C(O)(C(F)(F)F)C(F)(F)F [Compound 106, 1,1,1,3,3,3-Hexafluoro-2-(3-methoxy-4′-((4-(pyridin-4-ylmethyl)piperazin-1-yl)methyl)-[1,1′-biphenyl]-4-yl)propan-2-ol]
remaining activity at 10 µM (GST-RORγ): 40%

Compound: Cc1cc(-c2ccc(CN3CCN(Cc4ccncc4)CC3)cc2)ccc1C(O)(C(F)(F)F)C(F)(F)F [Compound 107, 1,1,1,3,3,3-Hexafluoro-2-(3-methyl-4′-((4-(pyridin-4-ylmethyl)piperazin-1-yl)methyl)-[1,1′-biphenyl]-4-yl)propan-2-ol]
remaining activity at 10 µM (GST-RORγ): 100%

Compound: OC(c1ccc(-c2ccc(CN3CCN(Cc4c[nH]cn4)CC3)cc2)cc1)(C(F)(F)F)C(F)(F)F [Compound 112, 2-(4′-((4-((1H-Imidazol-5-yl)methyl)piperazin-1-yl)methyl)-[1,1′-biphenyl]-4-yl)-1,1,1,3,3,3-hexafluoropropan-2-ol]
remaining activity at 10 µM (GST-RORγ): 48%

Compound: CC1CN(Cc2ccc(-c3ccc(C(O)(C(F)(F)F)C(F)(F)F)cc3)cc2)CCN1Cc1ccncc1 (centres unmarked) [Compound 117]
remaining activity at 10 µM (GST-RORγ): 20%

Compound: CC1CN(Cc2ccncc2)CCN1Cc1ccc(-c2ccc(C(O)(C(F)(F)F)C(F)(F)F)cc2)cc1 (centres unmarked) [Compound 118]
remaining activity at 10 µM (GST-RORγ): 20%

Compound: O=C1CN(Cc2ccc(-c3ccc(C(O)(C(F)(F)F)C(F)(F)F)cc3)cc2)CCN1Cc1ccncc1 [Compound 119]
remaining activity at 10 µM (GST-RORγ): 15%

Compound: O=C1CN(Cc2ccncc2)CCN1Cc1ccc(-c2ccc(C(O)(C(F)(F)F)C(F)(F)F)cc2)cc1 [Compound 120]
remaining activity at 10 µM (GST-RORγ): 15%

Compound: O=C(Cc1ccc(-c2ccc(C(O)(C(F)(F)F)C(F)(F)F)cc2)cc1)N1CCN(Cc2ccncc2)CC1 [Compound 137, 2-(4′-(1,1,1,3,3,3-hexafluoro-2-hydroxypropan-2-yl)-[1,1′-biphenyl]-4-yl)-1-(4-(pyridin-4-ylmethyl)piperazin-1-yl)ethanone]
remaining activity at 1 µM (GST-RORγ): 81%

Compound: O=S(=O)(c1cccs1)N1CCN(Cc2ccc(-c3ccc(C(O)(C(F)(F)F)C(F)(F)F)cc3)cc2)CC1 [Example 145, 1,1,1,3,3,3-Hexafluoro-2-(4′-((4-(thiophen-2-ylsulfonyl)piperazin-1-yl)methyl)-[1,1′-biphenyl]-4-yl)propan-2-ol]
VP16 repression, fold change over DMSO (VP16): 3.0 fold change over DMSO | RORγ repression, fold change over DMSO (RORγ): 3.0 fold change over DMSO

Compound: O=S(=O)(c1ccc(C(F)(F)F)cc1)N1CCN(Cc2ccc(-c3ccc(C(O)(C(F)(F)F)C(F)(F)F)cc3)cc2)CC1 [Example 146, 1,1,1,3,3,3-Hexafluoro-2-(4′-((4-((4-(trifluoromethyl)phenyl)sulfonyl)piperazin-1-yl)methyl)-[1,1′-biphenyl]-4-yl)propan-2-ol]
VP16 repression, fold change over DMSO (VP16): 0.7 fold change over DMSO | RORγ repression, fold change over DMSO (RORγ): 0.9 fold change over DMSO

Compound: O=S(=O)(c1ccc(CBr)cc1)N1CCN(Cc2ccc(-c3ccc(C(O)(C(F)(F)F)C(F)(F)F)cc3)cc2)CC1 [Example 147, 2-(4′-((4-((4-(Bromomethyl)phenyl)sulfonyl)piperazin-1-yl)methyl)-[1,1′-biphenyl]-4-yl)-1,1,1,3,3,3-hexafluoropropan-2-ol]
VP16 repression, fold change over DMSO (VP16): 0.5 fold change over DMSO | RORγ repression, fold change over DMSO (RORγ): 0.5 fold change over DMSO

Compound: Cc1ccc([N+](=O)[O-])cc1S(=O)(=O)N1CCN(Cc2ccc(-c3ccc(C(O)(C(F)(F)F)C(F)(F)F)cc3)cc2)CC1 [Example 148, 1,1,1,3,33-Hexafluoro-2-(4′-((4-((2-methyl-5-nitrophenyl)sulfonyl)piperazin-1-yl)methyl)-[1,1′-biphenyl]-4-yl)propan-2-ol]
VP16 repression, fold change over DMSO (VP16): 1.0 fold change over DMSO | RORγ repression, fold change over DMSO (RORγ): 0.4 fold change over DMSO

Compound: O=[N+]([O-])c1ccc(S(=O)(=O)N2CCN(Cc3ccc(-c4ccc(C(O)(C(F)(F)F)C(F)(F)F)cc4)cc3)CC2)cc1 [Example 149, 1,1,1,3,3,3-Hexafluoro-2-(4′-((4-((4-nitrophenyl)sulfonyl)piperazin-1-yl)methyl)-[1,1′-biphenyl]-4-yl)propan-2-ol]
VP16 repression, fold change over DMSO (VP16): 0.7 fold change over DMSO | RORγ repression, fold change over DMSO (RORγ): 0.5 fold change over DMSO

Compound: O=C(OCc1ccccc1)N1CCN(Cc2ccc(-c3ccc(C(O)(C(F)(F)F)C(F)(F)F)cc3)cc2)CC1 [Example 150, Benzyl 4-((4′-(1,1,1,3,3,3-hexafluoro-2-hydroxypropan-2-yl)-[1,1′-biphenyl]-4-yl)methyl)piperazine-1-carboxylate]
VP16 repression, fold change over DMSO (VP16): 0.9 fold change over DMSO | RORγ repression, fold change over DMSO (RORγ): 0.5 fold change over DMSO

Compound: O=C(Oc1ccc([N+](=O)[O-])cc1)N1CCN(Cc2ccc(-c3ccc(C(O)(C(F)(F)F)C(F)(F)F)cc3)cc2)CC1 [Example 151, 4-Nitrophenyl 4-((4′-(1,1,1,3,3,3-hexafluoro-2-hydroxypropan-2-yl)-[1,1′-biphenyl]-4-yl)methyl)piperazine-1-carboxylate]
VP16 repression, fold change over DMSO (VP16): 0.6 fold change over DMSO | RORγ repression, fold change over DMSO (RORγ): 0.6 fold change over DMSO
